In test [1] the test system is HIV-1 fusion. Kind of test: gp160 induced cell-cell fusion assay (HeLa P4 / CHO-Tat10). In kind it is cell-based. The following applies: Human immunodeficiency virus 1, HeLaP4, read-out: IC50 against HIV-1 fusion (gp160 induced cell-cell fusion). As for the experimental part: The gp160 induced cell-cell fusion assay uses a HeLa P4 cell line and a CHO-Tat10 cell line.
The HeLa P4 cell line expresses CCR5 and CD4 and has been transfected with HIV-1 LTR-β-Galactosidase. The media for this cell line is Dulbecco modified eagle's medium (D-MEM) (without L-glutamine) containing 10% foetal calf serum (FCS), 2 mM L-glutamine penicillin/streptomycin (Pen/Strep; 100 U/mL penicillin+[…] streptomycin), and 1 μg/ml puromycin.
The CHO cell line is a Tat (transcriptional trans activator)-expressing clone from a CHO JRR17.1 cell line that has been transfected with pTat puro plasmid. […]
Upon cell fusion, Tat present in the CHO cell is able to transactivate the HIV-1 long terminal repeat (LTR) present in the HeLa cell leading to the expression of the β-Galactosidase enzyme. This expression is then measured using a Fluor Ace™ β-Galactosidase reporter assay kit (Bio-Rad cat no. 170-3150). This kit is a quantitative fluorescent assay that determines the level of expression of β-galactosidase using 4-methylumbelliferul-galactopyranoside (MUG) as substrate. β-Galactosidase hydrolyses the fluorogenic substrate resulting in release of the fluorescent molecule 4-methylumbelliferone (4 MU). Fluorescence of 4-methylumbelliferone is then measured on a fluorometer using an excitation wavelength of 360 nm and emission wavelength of 460 nm. […]

In test [2] the target is CCR5 (Homo sapiens, UniProt P51681). Kind of test: assay for CCR5 binding according to Combadiere et al. The text has this: Biol., 60, 147-52 (1996); and/or by using the intracellular calcium mobilisation assays as described by the same authors. Cell lines expressing the receptor of interest include those naturally expressing the receptor, such as PM-1, or IL-2 stimulated peripheral blood lymphocytes (PBL), or a cell engineered to express a recombinant receptor, such as CHO, 300.19, L1.2 or HEK-293.

Where two headings read alike, the source gives them in different places.

Sequence of CCR5 (P51681 whole entry): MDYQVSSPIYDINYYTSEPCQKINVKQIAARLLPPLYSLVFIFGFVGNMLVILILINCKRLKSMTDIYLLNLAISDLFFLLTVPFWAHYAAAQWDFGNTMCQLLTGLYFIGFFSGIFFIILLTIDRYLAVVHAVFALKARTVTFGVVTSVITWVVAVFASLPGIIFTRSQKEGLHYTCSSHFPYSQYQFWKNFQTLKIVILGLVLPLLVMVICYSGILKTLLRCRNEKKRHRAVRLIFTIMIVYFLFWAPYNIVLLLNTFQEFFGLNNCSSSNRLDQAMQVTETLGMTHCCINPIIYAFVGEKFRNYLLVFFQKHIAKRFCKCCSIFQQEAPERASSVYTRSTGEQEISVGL

For `CC(=O)N[C@@H](CCN1[C@@H]2CC[C@H]1C[C@@H](n1c(C)nc3c1CCN(C(C)=O)C3)C2)c1cccc(F)c1` [Example 1, N-{(1S)-3-[3-endo-(5-Acetyl-2-methyl-4,5,6,7-tetrahydro-1H-imidazo[4,5-c]pyridin-1-yl)-8-azabicyclo[3.2.1]oct-8-yl]-1-(3-fluorophenyl)propyl}acetamide], the IC50 in test [1] is 0.13 nM.
`CC(=O)N[C@@H](CCN1[C@@H]2CC[C@H]1C[C@@H](n1c(C)nc3c1CCN(C(=O)C(C)C)C3)C2)c1cccc(F)c1` [Example 4, N-{(1S)-3-[3-endo-(5-Isobutyryl-2-methyl-4,5,6,7-tetrahydro-1H-imidazo[4,5-c]pyridin-1-yl)-8-azabicyclo[3.2.1]oct-8-yl]-1-(3-fluorophenyl)propyl}acetamide]: the IC50 in test [2] (ligand MIP-1α, read-out: IC50 CCR5 binding (MIP-1α)) is 7.5 nM; in test [2] (ligand MIP-1β, read-out: IC50 CCR5 binding (MIP-1β)) it was 7.3 nM; in test [2] (ligand RANTES, read-out: IC50 CCR5 binding (RANTES)), 6.7 nM.
In the case of `CCC(=O)N1CCc2c(nc(C)n2[C@H]2C[C@H]3CC[C@@H](C2)N3CC[C@H](NC(C)=O)c2cccc(F)c2)C1` [Example 5, N-{(1S)-3-[3-endo-(2-Methyl-5-propionyl-4,5,6,7-tetrahydro-1H-imidazo[4,5-c]pyridin-1-yl)-8-azabicyclo[3.2.1]oct-8-yl]-1-(3-fluorophenyl)propyl}acetamide], the half-maximal inhibitory concentration (IC50) in test [2] (IC50 CCR5 binding (MIP-1α), ligand MIP-1α) amounted to 2.7 nM; in test [2] (IC50 CCR5 binding (MIP-1β), ligand MIP-1β) it was 2.4 nM; in test [2] (IC50 CCR5 binding (RANTES), ligand RANTES), 1.9 nM; in test [1], 0.12 nM.

One may read the IC50 as the concentration needed to halve the response being measured.

For the origin of these results see US7790740B2 (priority 2003, dated 2010).
